Columns and labels:
Assay in all cases: combination Emax (second highest fraction inhibited in the dose matrix, 72 h); higher = more inhibition; extreme values may be limits of the assay
[1] = test system: MDA-MB-175-VII (Breast Carcinoma)
Summary of the method: (§1)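 Cell lines in DMEM/F12 or RPMI with 10% FBS were plated in 1536-well plates, held 24 hours at 37°C, 5% CO2, then given two-drug dose matrices for 72 hours (DMSO typically 0.2%). Viability was read by CellTiter-Glo 2.0 luminescence and scaled as inhibition from 0 (vehicle wells) to 1 (blank wells). Combination Emax is the second-highest inhibition in the matrix; Bliss excess is observed combination effect minus expected EA + EB − EA·EB, EA and EB being single-agent effects.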

[2] = test system: HT-3 (Cervical Carcinoma)
Summary of the method: as §1

[3] = test system: RPMI-8402 (T-Lymphoblastic Leukemia)
Summary of the method: as §1

[4] = test system: SNU-1 (Gastric Carcinoma)
Summary of the method: as §1

[5] = test system: RS4-11 (B-Lymphoblastic Leukemia)
Summary of the method: as §1

MG-63 (Osteosarcoma) = test system: MG-63 (Osteosarcoma)
Summary of the method: as §1

[6] = test system: ATN-1 (T-Lymphoblastic Leukemia)
Summary of the method: as §1

[7] = test system: NCI-H1944 (Lung Adenocarcinoma)
Summary of the method: as §1

[8] = test system: TK (B-Cell Non-Hodgkin's Lymphoma)
Summary of the method: as §1

[9] = test system: BT-474 (Breast Carcinoma)
Summary of the method: as §1

[10] = test system: SBC-3 (Small Cell Lung Carcinoma)
Summary of the method: as §1

[11] = test system: NCI-H2170 (Squamous Cell Lung Carcinoma)
Summary of the method: as §1

[12] = test system: SUP-HD1 (Hodgkin's Lymphoma)
Summary of the method: as §1

[13] = test system: NCI-H1975 (Lung Adenocarcinoma)
Summary of the method: as §1

[14] = test system: NCI-H835 (Other Solid Carcinomas)
Summary of the method: as §1

[15] = test system: COR-L105 (Lung Adenocarcinoma)
Summary of the method: as §1

[16] = test system: HT-1197 (Bladder Carcinoma)
Summary of the method: as §1

SK-N-DZ (Neuroblastoma) = test system: SK-N-DZ (Neuroblastoma)
Summary of the method: as §1

[17] = test system: CAL-85-1 (Breast Carcinoma)
Summary of the method: as §1

[18] = test system: SCC90 (Head and Neck Carcinoma)
Summary of the method: as §1

Row | Structure (SMILES) | combination Emax [1] | combination Emax [2] | combination Emax [3] | combination Emax [4] | combination Emax [5] | combination Emax (MG-63 (Osteosarcoma)) | combination Emax [6] | combination Emax [7] | combination Emax [8] | combination Emax [9] | combination Emax [10] | combination Emax [11] | combination Emax [12] | combination Emax [13] | combination Emax [14] | combination Emax [15] | combination Emax [16] | combination Emax (SK-N-DZ (Neuroblastoma)) | combination Emax [17] | combination Emax [18]
1 | COc1cccc(OCCCN)c1-c1cc(Nc2cnc(C#N)cn2)n[nH]1 [Prexasertib] + Cc1cc2ncnn2cc1Nc1ncc2c(n1)n(C1CCOCC1)c(=O)n2C [AZD7648] (first compound max 1 µM, 7x7, partner max 10 µM) | 0.367 | 0.388 | 1 | 0.84 | 1 | 0.921 | 1 | 0.806 | 0.872 | 0.222 | 0.755 | 0.88 | 0.89 | 0.409 | 0.36 | 0.444 | 0.517 | 1 | 0.477 | 0.755
2 | COc1cccc(OCCCN)c1-c1cc(Nc2cnc(C#N)cn2)n[nH]1 [Prexasertib] + O=C(c1cc(Cc2n[nH]c(=O)c3ccccc23)ccc1F)N1CCN(C(=O)C2CC2)CC1 [Olaparib] (first compound max 1 µM, 7x7, partner max 10 µM) | 0.376 | 0.646 | 1 | 0.777 | 1 | 0.822 | 1 | 0.613 | 0.891 | 0.24 | 0.744 | 0.787 | 0.802 | 0.299 | 0.256 | 0.401 | 0.478 | 0.97 | 0.548 | 0.679
3 | CCc1c2c(nc3ccc(O)cc13)-c1cc3c(c(=O)n1C2)COC(=O)[C@]3(O)CC [SN-38] + CN(C)CCCOc1ccc(-c2ccc3ncc4c(c3c2)n(C2CCOCC2)c(=O)n4C)cn1 [AZD0156] (first compound max 0.3 µM, 7x7, partner max 1 µM) | 0.631 | 0.95 | 1 | 0.942 | 0.984 | 0.906 | 1 | 0.686 | 0.991 | 0.0708 | 0.919 | 0.919 | 0.907 | 0.514 | 0.242 | 0.536 | 0.156 | 0.901 | 0.639 | 0.423
4 | Cn1cnc2c(F)c(Nc3ccc(Br)cc3Cl)c(C(=O)NOCCO)cc21 [Selumetinib] + C=CCn1c(=O)c2cnc(Nc3ccc(N4CCN(C)CC4)cc3)nc2n1-c1cccc(C(C)(C)O)n1 [AZD1775] (first compound max 10 µM, partner max 1 µM) | 0.558 | 0.195 | 1 | 0.766 | 0.979 | 0.394 | 0.974 | 0.706 | 0.93 | 0.346 | 0.269 | 0.699 | 0.727 | 0.492 | 0.512 | 0.534 | 0.507 | 0.971 | 0.474 | 0.825
5 | Cn1cnc2c(F)c(Nc3ccc(Br)cc3Cl)c(C(=O)NOCCO)cc21 [Selumetinib] + CC(C)n1c(=O)n(C)c2cnc3cc(F)c(-c4ccc(OCCCN5CCCCC5)nc4)cc3c21 [AZD1390] (first compound max 10 µM, 7x7, partner max 0.3 µM) | 0.451 | 0.105 | 0.0871 | 0.384 | 0.0431 | 0.305 | 0.172 | 0.285 | 0.177 | 0.0709 | 0.152 | 0.0988 | 0.224 | 0.342 | 0.0782 | 0.402 | 0.152 | 0.239 | 0.44 | 0.774
6 | Cn1cnc2c(F)c(Nc3ccc(Br)cc3Cl)c(C(=O)NOCCO)cc21 [Selumetinib] + CCN(CCO)CCCOc1ccc2c(Nc3cc(CC(=O)Nc4cccc(F)c4)[nH]n3)ncnc2c1 [AZD2811] (first compound max 10 µM, 7x7, partner max 1 µM) | 0.485 | 0.367 | 0.754 | 0.53 | 0.937 | 0.32 | 0.734 | 0.381 | 0.262 | 0.0839 | 0.482 | 0.64 | 0.453 | 0.423 | 0.177 | 0.387 | 0.223 | 0.621 | 0.483 | 0.827
7 | Cn1cnc2c(F)c(Nc3ccc(Br)cc3Cl)c(C(=O)NOCCO)cc21 [Selumetinib] + C[C@@H]1COCCN1C2=NC(=NC(=C2)C3(CC3)[S@](=N)(=O)C)C4=C5C=CNC5=NC=C4 [AZD6738] (first compound max 10 µM, 7x7, partner max 10 µM) | 0.432 | 0.54 | 0.974 | 0.79 | 0.953 | 0.547 | 0.97 | 0.879 | 0.909 | 0.0449 | 0.656 | 0.618 | 0.668 | 0.496 | 0.19 | 0.483 | 0.422 | 0.986 | 0.559 | 0.764

— the supplement of paper PMC11061612
